{"source": "patent US6610675B1", "about": "(priority 1980, dated 2003)", "key": {"thymus weight in rats": {"tested_on": "thymus weight in rats", "assay": "Thymus inhibition testing (subcutaneous administration)", "type": "in vivo, rat", "experimental": "Several further studies were undertaken to determine the effects of selected compounds of the invention on thymi weights in rats when the drugs were systemically administered. In each of these studies, male Sprague-Dawley rats were used. […] On the fifth day (48 hours following the last treatment), the animals were sacrificed and the thymi weights were recorded. […] It is evident that the higher the inhibition of thymus activity at a given dose, the more toxic the compound is."}, "[1]": {"tested_on": "granulation tissue formation caused by implantation of cotton pellets", "assay": "Granuloma formation test (local cotton pellet granuloma assay)", "type": "in vivo, rat", "conditions": "for Body wt. gain / Granulation tissue Dry wt. / Granulation tissue Dry wt. Inhibition / Granulation tissue Wet wt. / Granulation tissue Wet wt. Inhibition / Thymus wt.: Table V-a", "experimental": "The test compound was dissolved in acetone and aliquots of varying concentrations were injected into cotton pellets. The pellets were dried and then one pellet was implanted beneath the skin of each test rat. Six days later, the animals were sacrificed and the granulation tissue (granuloma) which formed in and around the implanted pellet was removed, dried and weighed. In addition, the thymi and adrenals were removed and weighed."}, "[2]": {"conditions": "Table VIII, 10 mg/kg/day s.c., three days"}, "[3]": {"conditions": "chloromethyl 11β-hydroxy-17α-isopropoxycarbonyloxyandrost-4-en-3-one-17β-carboxylate = 1"}, "[4]": {"conditions": "Table IX, 3 mg/kg/day s.c., three days"}, "[5]": {"conditions": "Table IX, 10 mg/kg/day s.c., three days"}, "[6]": {"conditions": "Table IX, 30 mg/kg/day s.c., three days"}, "[7]": {"conditions": "Table IX, 100 mg/kg/day s.c., three days"}}}
{"smiles": "CCCOC(=O)O[C@]1(C(=O)OCCl)[C@H](C)C[C@H]2[C@@H]3CCC4=CC(=O)C=C[C@]4(C)[C@@]3(F)[C@@H](O)C[C@@]21C", "note": "[chloromethyl 9α-fluoro-11β-hydroxy-16α-methyl-17α-propoxycarbonyloxyandrosta-1,4-dien-3-one-17β-carboxylate]", "values": [{"measurement": "Body weight gain", "setting": "thymus weight in rats; [2]", "value": "2.7 ± 1.7", "unit": "g"}, {"measurement": "Thymus wt.", "setting": "thymus weight in rats; [2]", "value": "277 ± 25", "unit": "mg"}, {"measurement": "Thymus wt. Inhibition", "setting": "thymus weight in rats; [2]", "value": 49.6, "unit": "%"}, {"measurement": "Body wt. gain", "setting": "[1]; 0.3 μg/pellet", "value": "35.6 ± 1.0", "unit": "g"}, {"measurement": "Granulation tissue Dry wt.", "setting": "[1]; 0.3 μg/pellet", "value": "55.1 ± 6.2", "unit": "mg"}, {"measurement": "Granulation tissue Dry wt. Inhibition", "setting": "[1]; 0.3 μg/pellet", "value": 31.2, "unit": "%"}, {"measurement": "Granulation tissue Wet wt.", "setting": "[1]; 0.3 μg/pellet", "value": "454 ± 27", "unit": "mg"}, {"measurement": "Granulation tissue Wet wt. Inhibition", "setting": "[1]; 0.3 μg/pellet", "value": 13.5, "unit": "%"}, {"measurement": "Thymus wt.", "setting": "[1]; 0.3 μg/pellet", "value": "523 ± 28", "unit": "mg"}, {"measurement": "Body wt. gain", "setting": "[1]; 1 μg/pellet", "value": "31.9 ± 0.8", "unit": "g"}, {"measurement": "Granulation tissue Dry wt.", "setting": "[1]; 1 μg/pellet", "value": "42.9 ± 5.1", "unit": "mg"}, {"measurement": "Granulation tissue Dry wt. Inhibition", "setting": "[1]; 1 μg/pellet", "value": 46.4, "unit": "%"}, {"measurement": "Granulation tissue Wet wt.", "setting": "[1]; 1 μg/pellet", "value": "415 ± 30", "unit": "mg"}, {"measurement": "Granulation tissue Wet wt. Inhibition", "setting": "[1]; 1 μg/pellet", "value": 21.0, "unit": "%"}, {"measurement": "Thymus wt.", "setting": "[1]; 1 μg/pellet", "value": "453 ± 21", "unit": "mg"}, {"measurement": "Body wt. gain", "setting": "[1]; 3 μg/pellet", "value": "34.1 ± 1.9", "unit": "g"}, {"measurement": "Granulation tissue Dry wt.", "setting": "[1]; 3 μg/pellet", "value": "29.7 ± 3.2", "unit": "mg"}, {"measurement": "Granulation tissue Dry wt. Inhibition", "setting": "[1]; 3 μg/pellet", "value": 62.9, "unit": "%"}, {"measurement": "Granulation tissue Wet wt.", "setting": "[1]; 3 μg/pellet", "value": "360 ± 18", "unit": "mg"}, {"measurement": "Granulation tissue Wet wt. Inhibition", "setting": "[1]; 3 μg/pellet", "value": 31.4, "unit": "%"}, {"measurement": "Thymus wt.", "setting": "[1]; 3 μg/pellet", "value": "504 ± 42", "unit": "mg"}, {"measurement": "Body wt. gain", "setting": "[1]; 10 μg/pellet", "value": "33.1 ± 1.6", "unit": "g"}, {"measurement": "Granulation tissue Dry wt.", "setting": "[1]; 10 μg/pellet", "value": "28.5 ± 2.8", "unit": "mg"}, {"measurement": "Granulation tissue Dry wt. Inhibition", "setting": "[1]; 10 μg/pellet", "value": 64.4, "unit": "%"}, {"measurement": "Granulation tissue Wet wt.", "setting": "[1]; 10 μg/pellet", "value": "350 ± 13", "unit": "mg"}, {"measurement": "Granulation tissue Wet wt. Inhibition", "setting": "[1]; 10 μg/pellet", "value": 33.3, "unit": "%"}, {"measurement": "Thymus wt.", "setting": "[1]; 10 μg/pellet", "value": "547 ± 26", "unit": "mg"}, {"measurement": "Relative potency (ED40)", "setting": "[1]; [3]", "value": 529}, {"measurement": "Relative potency (ED60)", "setting": "[1]; [3]", "value": 277}, {"measurement": "ED40", "setting": "[1]; dose causing 40% inhibition of granulation tissue weight", "value": 0.58, "unit": "μg/pellet"}, {"measurement": "ED50", "setting": "[1]; dose causing 50% inhibition of granulation tissue weight", "value": 1.20, "unit": "μg/pellet"}, {"measurement": "ED60", "setting": "[1]; dose causing 60% inhibition of granulation tissue weight", "value": 2.49, "unit": "μg/pellet"}]}
{"smiles": "COC(=O)O[C@]1(C(=O)OCCl)[C@H](C)C[C@H]2[C@@H]3CCC4=CC(=O)C=C[C@]4(C)[C@@]3(F)[C@@H](O)C[C@@]21C", "note": "[chloromethyl 9α-fluoro-11β-hydroxy-17α-methoxycarbonyloxy-16α-methylandrosta-1,4-dien-3-one-17β-carboxylate]", "values": [{"measurement": "Body weight gain", "setting": "thymus weight in rats; [4]", "value": "18.8 ± 1.4", "unit": "g"}, {"measurement": "Thymus wt.", "setting": "thymus weight in rats; [4]", "value": "426 ± 19", "unit": "mg"}, {"measurement": "Thymus wt. Decrease", "setting": "thymus weight in rats; [4]", "value": 0.0, "unit": "%"}, {"measurement": "Body weight gain", "setting": "thymus weight in rats; [5]", "value": "13.8 ± 1.6", "unit": "g"}, {"measurement": "Thymus wt.", "setting": "thymus weight in rats; [5]", "value": "354 ± 8", "unit": "mg"}, {"measurement": "Thymus wt. Decrease", "setting": "thymus weight in rats; [5]", "value": 16.9, "unit": "%"}, {"measurement": "Body weight gain", "setting": "thymus weight in rats; [6]", "value": "12.0 ± 0.8", "unit": "g"}, {"measurement": "Thymus wt.", "setting": "thymus weight in rats; [6]", "value": "282 ± 11", "unit": "mg"}, {"measurement": "Thymus wt. Decrease", "setting": "thymus weight in rats; [6]", "value": 33.8, "unit": "%"}, {"measurement": "Body weight gain", "setting": "thymus weight in rats; [7]", "value": "9.8 ± 1.3", "unit": "g"}, {"measurement": "Thymus wt.", "setting": "thymus weight in rats; [7]", "value": "206 ± 15", "unit": "mg"}, {"measurement": "Thymus wt. Decrease", "setting": "thymus weight in rats; [7]", "value": 51.6, "unit": "%"}, {"measurement": "Relative Potency (TED40)", "setting": "thymus weight in rats; Table XII, hydrocortisone 17-butyrate = 1", "value": "1/36"}, {"measurement": "TED40", "setting": "thymus weight in rats; Table XII, thymus inhibition effect, subcutaneously", "value": 46.0, "unit": "mg/kg"}, {"measurement": "ED50", "setting": "[1]; Table XII, anti-inflammatory effect in cotton pellet granuloma", "value": 2.38, "unit": "μg/pellet"}]}
